Measurements from patent US20170189372A1, “USE OF SUBSTITUTED CHROMAN COMPOUNDS” (INSTYTUT BIOLOGII MEDYCZNEJ, priority 2014, published 2017).

What was measured:
[1] = test system: reporter cell line for interleukin-10 (EL-4 cells); assay: FCC test, expanded version, IL-10 reporter cell line; type: cell-based, mouse; conditions: IL-10 reporter line; PMA and ionomycin; 1.56 to 50 μg/ml, 50 μg/ml assumed to be 1
Procedure: (§1) Development of reporter cell lines was described previously (Ulleras, E., D. Trzaska, et al. (2005); “Development of the “Cell Chip”: a new in vitro alternative technique for immunotoxicity testing”, Toxicology 206(2): 245-56). Briefly, EL-4 cells were stably transfected with transgene consisting of promoter regions from mouse β-actin, interleukin-2 (IL-2), interleukin-4 (IL-4), interferon-γ (IFN-γ), and interleukin-10 (IL-10) and ORF for EGFP. Reporter cells were cultured at density 5×10^5-1×10^6 cells/ml in a humidified atmosphere with 5% CO2 at 37° C. in RPMI 1640 with Glutamax supplemented with 20% FCS and 0.5 μg/ml G418.
(§2) Compounds after primary screening were considered to be hits when FCC parameter calculated after primary screening was ≦−5000. After secondary screening area under the curve (A) of FCC parameter versus relative concentration was calculated (maximum concentration used, i.e. 50 μg/ml, was assumed to be 1). […]
(§3) Flavonoids selected after preliminary screening were undergoing FCC testing using 5 reporter cell lines: for β-actin, interleukin-2 (IL-2), interleukin-4 (IL-4), interferon-γ (IFN-γ) and interleukin-10 (IL-10). The tested concentrations were in the range from 1.56 to 50 μg/ml.
(§4) Using flow cytometry mean fluorescence intensity (columns, left Y axis) and cell viability (dots, the right Y-axis) was determined for all the experimental points and normalized relative to the control—cells incubated with medium with PMA and ionomycin. The data is the mean of the three experiments ±SEM. The statistical significance of differences between means were determined: * p<0.05, ** p<0.01, *** p<0.001 versus control. Values above the graph represent the area under the curve showing the relationship of the FCC parameter and the relative compound concentration.

[2] = test system: reporter cell line for interleukin-2 (EL-4 cells); assay: FCC test, expanded version, IL-2 reporter cell line; type: cell-based, mouse; conditions: IL-2 reporter line; PMA and ionomycin; 1.56 to 50 μg/ml, 50 μg/ml assumed to be 1
Procedure: as §1, §2, §3, §4

[3] = test system: reporter cell line for interferon-γ (EL-4 cells); assay: FCC test, expanded version, IFN-γ reporter cell line; type: cell-based, mouse; conditions: PMA and ionomycin, 1.56 to 50 μg/ml, 50 μg/ml assumed to be 1
Procedure: as §1, §2, §3, §4

[4] = test system: IL-2 production by Jurkat cells; assay: ELISA for IL-2 in Jurkat cells; type: cell-based; conditions: Jurkat cells, PMA and ionomycin, 24 hours; for inhibition at 10 µg/mL / inhibition at 50 µg/mL: Homo sapiens
Procedure: Jurkat cells were seeded in 48-well plates at a concentration of 1 million/ml. Cells activated with PMA (50 ng/ml) and ionomycin (1 uM) or resting were incubated with 50 selected flavonoids in a concentration of 10 μg/ml and 50 μg/ml for 24 hours in a humidified atmosphere with 5% CO 2 at 37° C. As a control, the respective cells in the medium or in a medium with PMA and ionomycin were employed. After incubation, cells were centrifuged (8 minutes, 1300 rpm), and the cell-free supernatants were stored at −20° C. until measurements. IL-2 was assessed using a commercially available ELISA kits according to the manufacturer's instructions. Each experiment was repeated 3 times.
FCC assay and ELISA assay were repeated three times. Relative data were presented as the means±SEM. […] Statistical significance of differences observed in both assays was tested with ANOVA followed by post hoc Dunnett test using GraphPad software (La Jolla, Calif., USA). In statistical analysis non-relative data were used

[5] = test system: reporter cell line for IL-2 (EL-4 cells); assay: FCC primary screening with IL-2 reporter cells; type: cell-based, mouse; conditions: relative viability×(relative fluorescence−100); PMA and ionomycin activated, compound 0.4 μg/ml, 18 h
Procedure: as §1
When applicable, cells and reagents handling was performed by JANUS Automated Workstation (PerkinElmer, Waltham, Mass., USA). Cells were seeded at a density of 5×10^4 per well in 96-well plates. In the primary screening reporter cells for IL-2 activated with PMA (50 ng/ml) and ionomycin (1 μM) were seeded in a 96-well plate and incubated with compounds from the chemical library in a total volume of 100 μL at 37° C. in a humidified atmosphere with 5% CO2 for 18 h. Concentration of compounds was 0.4 μg/ml. The final DMSO concentration was 0.2%, DMSO is not cytotoxic towards EL-4 reporter cells at this concentration. Control samples consisted of cells in medium with 0.2% DMSO with PMA (50 ng/ml) and ionomycin (1 μM). Following incubation cells were analyzed by flow cytometry. Viability was assessed in parallel to the level of EGFP-mediated fluorescence.
Selection of compounds was based on FCC parameters calculated using the following formula:
FCC parameter=relative viability×(relative fluorescence−100)
Compounds after primary screening were considered to be hits when FCC parameter calculated after primary screening was ≦−5000. After secondary screening area under the curve (A) of FCC parameter versus relative concentration was calculated (maximum concentration used, i.e. 50 μg/ml, was assumed to be 1).

[6] = test system: reporter cell line for β-actin (EL-4 cells); assay: FCC test, expanded version, β-actin reporter cell line; type: cell-based, mouse; conditions: PMA and ionomycin, 1.56 to 50 μg/ml, 50 μg/ml assumed to be 1
Procedure: as §1, §2, §3, §4

[7] = test system: reporter cell line for interleukin-4 (EL-4 cells); assay: FCC test, expanded version, IL-4 reporter cell line; type: cell-based, mouse; conditions: IL-4 reporter line; PMA and ionomycin; 1.56 to 50 μg/ml, 50 μg/ml assumed to be 1
Procedure: as §1, §2, §3, §4

CC(=O)Oc1ccc(/C=C/C(=O)CC2OC(Oc3cc(OC(C)=O)c4c(c3)O[C@@H](c3ccc(OC(C)=O)cc3)CC4=O)C(OC(C)=O)C(OC(C)=O)C2OC(C)=O)cc1 (stereo partly drawn) [Compound 3, 4-(7-{6-[(3E)-4-(4-acetyloxyphenyl)-2-oxobut-3-enyl]-3,4,5-triacetyloxy(2H-3,4,5,6-tetrahydropyran-2-yloxy)}(2R)-5-acetyloxy-4-oxochroman-2-yl)phenyl acetate] was tested, and the “The area under the curve showing the relationship between the FCC parameter and compound concentration, IL-10” value (from here on “The area … IL-10”) [1] was −1509, the “The area under the curve showing the relationship between the FCC parameter and compound concentration, IL-2” value (shortened to “The area … IL-2”) [2] was −4581 and the “The area under the curve showing the relationship between the FCC parameter and compound concentration, IFN” value (shortened to “The area … IFN”) [3] was −3801. For the same compound, the “Inhibition of IL-2 production (ELISA)” value ([4]; 10 μg/ml) was 64%, the “Inhibition of IL-2 production (ELISA)” value ([4]; 50 μg/ml) was 68% and the “FCC parameter (IL-2 screening)” value [5] was −5095. The “The area under the curve showing the relationship between the FCC parameter and compound concentration, AKT” value (from here on “The area … AKT”) [6] was 945 and the “The area under the curve showing the relationship between the FCC parameter and compound concentration, IL-4” value (“The area … IL-4” for short) [7] was −308.
COc1ccc2c(c1)OC(c1cccc(OC)c1OC)CC2=O (stereo not drawn) [Compound 7, 2-(2,3-dimethoxyphenyl)-7-methoxychroman-4-one] was tested, and the “The area … IL-10” value [1] was −2889, the “The area … IL-2” value [2] was −4104 and the “The area … IFN” value [3] was −5873. The inhibition at 10 µg/mL ([4]; 10 μg/ml) was 67%, the inhibition at 50 µg/mL ([4]; 50 μg/ml) was 92% and the “FCC parameter (IL-2 screening)” value [5] was −6178. For the same compound, the “The area … AKT” value [6] was −1357 and the “The area … IL-4” value [7] was −1865.
With COc1cccc(C2CC(=O)c3ccccc3O2)c1OC (stereo not drawn) [Compound 10, 2-(2,3-dimethoxyphenyl)chroman-4-one] the “The area … IL-10” value [1] was −1336, the “The area … IL-2” value [2] was −2244 and the “The area … IFN” value [3] was −3142. For the same compound, the inhibition at 10 µg/mL ([4]; 10 μg/ml) was 32%, the inhibition at 50 µg/mL ([4]; 50 μg/ml) was 97% and the “FCC parameter (IL-2 screening)” value [5] was −6685. For the same compound, the “The area … AKT” value [6] was 118 and the “The area … IL-4” value [7] was −946.
With CC(=O)Oc1ccc2c(c1)OC(c1ccccc1)CC21CC(C)(C)NC(=S)N1 (stereo not drawn) [Compound 4, 7-acetoksy-2,3,5′,6′-tetrahydro-6′,6′-dimetylo-2-fenylo-spiro[4H-1-benzopirano-4,4′(1′H)-pirymidyno]-2′(3′H)-tion] the “The area … IL-10” value [1] was −1928, the “The area … IL-2” value [2] was −1081 and the “The area … IFN” value [3] was −3521. For the same compound, the “Inhibition of IL-2 production (ELISA)” value ([4]; 10 μg/ml) was 27%, the “Inhibition of IL-2 production (ELISA)” value ([4]; 50 μg/ml) was 44% and the “FCC parameter (IL-2 screening)” value [5] was −5692. The “The area … AKT” value [6] was −104 and the “The area … IL-4” value [7] was 988.
COc1cccc2c1C(=O)CC(c1ccccc1)O2 (stereo not drawn) [Compound 9, 5-methoxy-2-phenylchroman-4-one] was tested, and the “The area … IL-10” value [1] was −1472, the “The area … IL-2” value [2] was −3872 and the “The area … IFN” value [3] was −4745. For the same compound, the inhibition at 10 µg/mL ([4]; 10 μg/ml) was 43%, the inhibition at 50 µg/mL ([4]; 50 μg/ml) was 92% and the “FCC parameter (IL-2 screening)” value [5] was −5636. The “The area … AKT” value [6] was 3861 and the “The area … IL-4” value [7] was 675.
COc1cc(OC)c2c(c1)OC(c1ccccc1)CC2=O (stereo not drawn) [Compound 8, 5,7-dimethoxy-2-phenylchroman-4-one] was tested, and the “The area … IL-10” value [1] was −628, the “The area … IL-2” value [2] was −2590 and the “The area … IFN” value [3] was −4396. For the same compound, the inhibition at 10 µg/mL ([4]; 10 μg/ml) was 80%, the inhibition at 50 µg/mL ([4]; 50 μg/ml) was 100% and the “FCC parameter (IL-2 screening)” value [5] was −5788. The “The area … AKT” value [6] was 3973 and the “The area … IL-4” value [7] was 2380.
For CC(C)=CCc1c(O)cc(O)c2c1OC(c1ccc(O)cc1)CC2=O (stereo not drawn) [Compound 5, 5,7-dihydroxy-2-(4-hydroxyphenyl)-8-(3-methylbut-2-enyl)chroman-4-one], the “The area … IL-10” value [1] was −3119, the “The area … IL-2” value [2] was −4991 and the “The area … IFN” value [3] was −4565. For the same compound, the inhibition at 10 µg/mL ([4]; 10 μg/ml) was 28%, the inhibition at 50 µg/mL ([4]; 50 μg/ml) was 95% and the “FCC parameter (IL-2 screening)” value [5] was −5264. The “The area … AKT” value [6] was −979 and the “The area … IL-4” value [7] was −3324.
With CC1(C)CC2(CC(c3ccccc3)Oc3cc(O)ccc32)NC(=S)N1 (stereo not drawn) [Compound 2, Spiro[4H-1-benzopyran-4,4′(1′H)-pyrimidine]-2′(3′H)-thione, 2,3,5′,6′-tetrahydro-7-hydroxy-6′,6′-dimethyl-2-phenyl] the “The area … IL-10” value [1] was −2585, the “The area … IL-2” value [2] was −2394 and the “The area … IFN” value [3] was −3977. For the same compound, the “Inhibition of IL-2 production (ELISA)” value ([4]; 10 μg/ml) was 35%, the “Inhibition of IL-2 production (ELISA)” value ([4]; 50 μg/ml) was 91% and the “FCC parameter (IL-2 screening)” value [5] was −5484. The “The area … AKT” value [6] was −1120 and the “The area … IL-4” value [7] was 261.
For COc1ccc2c(c1)OC(c1ccccc1)CC2=O (stereo not drawn) [Compound 11, 7-methoxy-2-phenylchroman-4-one], the “The area … IL-10” value [1] was −777, the “The area … IL-2” value [2] was −3670 and the “The area … IFN” value [3] was −3975. The inhibition at 10 µg/mL ([4]; 10 μg/ml) was 35%, the inhibition at 50 µg/mL ([4]; 50 μg/ml) was 97% and the “FCC parameter (IL-2 screening)” value [5] was −6917. For the same compound, the “The area … AKT” value [6] was −754 and the “The area … IL-4” value [7] was −1499.
